Assay results reported in patent US5595763A (priority 1995, dated 1997).

Tests used:
diabetic rats = details: treated diabetic rats, experiments run in parallel
[1] = tested on: rat treated neonatally with low doses of streptozocin; details: in vivo

`[Na+].[Na+].[O]=[W](=[O])([O-])[O-]` [sodium tungstate] was tested, and the mortality (diabetic rats) was “about 10%” and the survival [1] was “all animals survived”.
